Data reported in article PMC5964538, “Prevention of Cyclophosphamide-Induced Immunosuppression in Mice with the Antimicrobial Peptide Sublancin” (Journal of Immunology Research, 2018).
Structures can show the parent of a compound that is named as a salt.

What was measured:
[1] = system: IL-6 mRNA; experiment: IL-6 gene expression in peritoneal macrophages after oral administration (real-time PCR); assay type: in vivo, BALB/c mice; settings: oral 2.5 mg/kg BW/d for 7 days, vs control, P < 0.05, n = 6
[2] = Peripheral hemogram analysis in cyclophosphamide-treated mice; assay type: in vivo, BALB/c mice; settings: gavage 10.0 mg/kg for 7 days, compared with the NC treatment (so in the source), n = 6
[3] = system: TNF-α mRNA; experiment: TNF-α gene expression in peritoneal macrophages after oral administration (real-time PCR); assay type: in vivo, BALB/c mice; settings: oral 2.5 mg/kg BW/d for 7 days, vs control, P < 0.05, n = 6
[4] = system: IL-1β mRNA; experiment: IL-1β gene expression in peritoneal macrophages after oral administration (real-time PCR); assay type: in vivo, BALB/c mice; settings: oral 2.5 mg/kg BW/d for 7 days, vs control, P < 0.05, n = 6
[5] = In vivo fluorescence imaging (biodistribution after oral dose); design: species or system BALB/c mice
Procedure: To observe the biodistribution of sublancin in vivo, sublancin was labeled with the near-infrared dye Cy7 monoreactive NHS ester (Invitrogen, CA, USA). Female BALB/c mice of 6–8 weeks old were given an oral dose of 100 μL Cy7-stained sublancin or free Cy7. At the indicated time points (0 h, 30 min, 2 h, 6 h, 12 h, 24 h, and 48 h), mice were anesthetized with 2.5% isoflurane and then placed in the in vivo Imaging System (FXPro Kodak). The excitation and emission bandpass filter was 730 nm and 790 nm, respectively. Fluorescence signals were collected by Carestream Molecular Imaging Software. At 12 h, mice were euthanized and the ex vivo optical images of the intestine, heart, liver, spleen, lung, and kidney were recorded using the same system.

## c1ccc([C@H]2CN3CCSC3=N2)cc1 [levamisole hydrochloride]
[1]
  Gene expression level of IL-6 in peritoneal macrophages: higher than that in the control group
[2]
  HGB: higher
  Number of RBC: higher
  Number of WBC: higher
  Number of platelets: higher
[3]
  Gene expression level of TNF-α in peritoneal macrophages: higher than that in the control group
[4]
  Gene expression level of IL-1β in peritoneal macrophages: higher than that in the control group

## CCN1C(=CC=CC=CC=CC2=[N+](CCCCCC(=O)O)c3ccc(S(=O)(=O)O)cc3C2(C)C)C(C)(C)c2cc(S(=O)(=O)[O-])ccc21 [free Cy7]
[5]; 12 h after gavage
  Fluorescence in the excised intestine (ex vivo images): only very little
  Fluorescent signal in the heart, liver, spleen, lung, and kidney (ex vivo images): Almost no fluorescent signal
[5]; oral dose of 100 μL, twelve hours after administration
  Presence in the intestine (in vivo fluorescence): most of the free Cy7 had disappeared
[5]; oral dose of 100 μL, within 6 h
  Fluorescent signal in vivo: weak fluorescent signals
